Experimental data taken from publication PMC10222203 (Pharmaceutics, 2023).

Assays:
in vivo = details: rat; for Half-life, t½ / half-life: 10 min intravenous infusion; for Half-life, t½ / AUC(0-inf) / Vd / clearance / half-life: 0.5 mg/kg; for AUC(0-inf) / Vd / clearance / half-life: iv; for half-life: t½
Experimental: Since previous pharmacokinetic data were extremely sparse, a pilot study was performed in rats (n = 2), and simulations were performed in Berkeley Madonna (version 8.3.18 for Windows, Berkeley, CA, USA), defining suitable dose and sampling intervals from the parameters obtained in the pilot study. The surgical implantation of catheters made of polyethylene (PE50) in the femoral vein and artery for dosing of peptide and sampling of blood, respectively, was performed the day before experiments under isoflurane anaesthesia. The animals were then housed in a CMA120 system (CMA, Solna, Sweden) for freely moving animals with ad libitum access to food and water. […] All samples were added to heparinized low-binding Eppendorf tubes. The blood samples were centrifuged, and plasma was transferred to new Eppendorf tubes and immediately frozen at −20 °C. After bioanalysis, the area under the plasma concentration–time curve (AUC) was determined by the trapezoidal rule with extrapolation to time infinity followed by calculation of systemic clearance (CL), apparent volume of distribution (Vd), and half-life (t½).

[1] = rat; for Kp at 4 h / Kp uu: in vivo; for Kp at 4 h / Total brain-to-plasma concentration ratio, Kp,brain: 0.5 mg/kg, 4 h infusion, total dose 0.5 mg/kg; for Kp at 4 h: Total brain-to-plasma concentration ratio, Kp,brain; for Kp at 4 h / Kp uu / Kp,uu,brain as percent equilibrating across the BBB / Total brain-to-plasma concentration ratio, Kp,brain / Unbound brain-to-plasma concentration ratio, Kp,uu,brain: steady state; for Kp uu: Unbound brain-to-plasma concentration ratio, Kp,uu,brain; for Kp uu / Unbound brain-to-plasma concentration ratio, Kp,uu,brain: Kp,brain/(fu,plasma × Vu,brain); for Total steady-state plasma concentration, Cplasma,ss: listed in Table S3
Experimental: In order to assure the accurate assessment of the extent of BBB transport and to minimize the use of animals, the achievement of steady-state conditions of total plasma concentration and equilibration across the blood–brain interface are critical. […] The infusion was administered through the catheter placed in the femoral vein. Blood (200 µL) was sampled from the catheter in the femoral artery at 1, 2, and 3 h into heparinized tubes to ensure that steady-state conditions were obtained in plasma. At 4 h, blood was sampled through heart puncture using EDTA vacutainers (BD, Eysins, Switzerland), and the whole brain was collected. The blood samples were centrifuged, and plasma was collected. All samples were immediately frozen on dry ice and then kept at −20 °C pending analysis.
The in vivo total brain-to-plasma concentration ratio, Kp,brain, was studied by measuring steady-state concentrations in plasma and the total amount in the brain (Equation (1)). (1) Kp,brain=Abrain/Cplasma where Abrain is the total amount of peptide in the brain calculated using Equation (2), including compensation for the residual cerebral blood, and Cplasma is total plasma concentration (µg/mL).
The unbound brain-to-plasma ratio, Kp,uu,brain, was calculated using Equation (13) according to the CMA [37], where Kp,brain is the total brain-to-plasma ratio, fu,plasma is the unbound fraction in plasma as measured with equilibrium dialysis, and Vu,brain is the unbound volume of distribution in brain measured with the brain slice technique. (13) Kp,uu,brain=Kp,brain/fu,plasma×Vu,brain

[2] = system: brain-like endothelial cells (BLECs); assay: in vitro
Experimental: The in vitro BBB model, consisting of CD34^+ endothelial cells (ECs) derived from hematopoietic stem cells in co-culture with bovine brain pericytes, was established as described by Cecchelli et al.. Written and informed consent was obtained for the collection of human umbilical cord blood, in compliance with French legislation. […] All experiments were carried out in line with the authorized protocol.
These isolated CD34+ cells were cultured in EGM-2, supplemented with 20% (v:v) FBS and 50 ng/mL vascular endothelial growth factor on 1% (w:v) gelatine-coated 24-well plates (2 × 10^5 cells/well). After 15–20 days, ECs are seen in the culture dish. For each experiment, the cells were expanded in 1% (w:v) gelatine-coated T75 flasks (BD Biosciences, Le Pont-de-Claix, France) in EGM-2. Bovine brain pericytes were isolated and characterized as described by Vandenhaute et al.. Sub-clones were cultured in Dulbecco’s Modified Eagle’s Medium supplemented with 20% (v:v) FBS, 2 mM L-glutamine, 50 µg/mL gentamycin, and 1 ng/mL basic fibroblast growth factor. At confluency, 5 × 10^4 cells were seeded in ECM-5 with 5% (v:v) FBS, 50 µg/mL gentamycin, and 0.5% endothelial cell growth factor in gelatine-coated 12-well plates (Costar, Corning Inc., New York, NY, USA). CD34^+-derived ECs were seeded at 8 × 10^4 cells per Matrigel-coated (BD Biosciences) insert (3401, Corning Inc., NY, USA) and put in co-culture with the bovine brain pericytes, with the pericytes at the bottom of the well, for 6 days to achieve brain-like endothelial cell (BLEC) characteristics (Figure 4b).
At the beginning of the permeability experiments, inserts with BLEC monolayers were transferred to new abluminal (receiver) compartments previously filled with 1.5 mL of RH buffer, and 500 µL of the compounds dissolved in RH buffer, with the addition of the paracellular marker sodium fluorescein (NaFlu), were added to the luminal (donor) compartment. After 3 h of incubation at 37 °C, with a shaking velocity of 60 rpm, aliquots were taken from the donor and receiver compartment. The BLEC monolayers were washed twice with cold RH buffer and lysed with RLT Lysis buffer. The samples were kept at −20 °C pending analysis in low-binding tubes.
An increase in the permeability to NaFlu in the presence of the peptide can indicate an increase in paracellular leakage and consequent loss of barrier integrity. To evaluate the ability of test compounds to cross Matrigel-coated filters without cells and to control for the adsorption to plastics and/or Matrigel, the NaFlu and peptide’s permeability over inserts without cells were also assessed. Mass balance (M.B%) was calculated from the amount of compound recovered in both compartments at the end of the experiment divided by the total amount added to the donor compartment at the start of the experiment.
Samples from both compartments as well as the lysed endothelial cells were analysed for fluorescence using a Synergy H1 (Biotek) set to quantify NaFlu (wavelengths Excitation 490 nm and Emission 525 nm) and with UPLC-MS/MS to assess the permeability and cellular uptake of the peptides. All experiments were performed in triplicate (n = 3 independent experiments per concentration and cCPPs).
Papp is the apparent permeability, J is the rate of appearance of the compound in the receiver compartment (amount/sec), and C0 is the concentration in the donor compartment at the start of the experiment (amount/mL).

CC(C)C[C@@H]1NC(=O)CNC(=O)[C@H](CC(N)=O)NC(=O)[C@H](CCCNC(=N)N)NC(=O)[C@H]([C@@H](C)O)NC(=O)[C@@H]2CSSC[C@@H]3NC(=O)[C@H]([C@@H](C)O)NC(=O)CNC(=O)CNC(=O)[C@H](C(C)C)NC(=O)[C@@H]4CSSC[C@H](NC(=O)[C@H]([C@@H](C)O)NC(=O)[C@H](CSSC[C@H](NC(=O)[C@H](C(C)C)NC(=O)[C@@H]5CCCN5C1=O)C(=O)NCC(=O)N[C@@H](CCC(=O)O)C(=O)N[C@@H]([C@@H](C)O)C(=O)N4)NC(=O)CNC(=O)[C@@H]1CCCN1C(=O)[C@H]([C@@H](C)O)NC(=O)[C@H](CC(N)=O)NC3=O)C(=O)N[C@@H](CO)C(=O)N[C@@H](Cc1c[nH]c3ccccc13)C(=O)N1CCC[C@H]1C(=O)N[C@@H](C(C)C)C(=O)N2 [Kalata B1]
Half-life, t½ (in vivo; plasma): 35.8 ± 3.52 min | AUC(0-inf) (in vivo; in vivo): 2800 ng·h/mL | Vd (in vivo; in vivo): 0.322 ± 0.0887 L/kg | clearance (in vivo; in vivo): 1.6 ± 0.396 mL/min/kg | half-life (in vivo; in vivo, plasma): 35 min | Kp at 4 h [1]: 0.23 | Kp uu [1]: 0.005 | Kp,uu,brain as percent equilibrating across the BBB [1]: 0.5% | Total brain-to-plasma concentration ratio, Kp,brain [1]: 0.234 ± 0.083 | Unbound brain-to-plasma concentration ratio, Kp,uu,brain [1]: 0.00479 ± 0.0023 | Total steady-state plasma concentration, Cplasma,ss [1]: 1096 nmol/L | Percent of the initial amount in the lysed endothelial cells ([2]; BLECs exposed to 1000 nM peptide): 0.09% | Percent of the initial amount in the lysed endothelial cells ([2]; BLECs exposed to 2000 nM peptide): 0.23% | Percent of the initial amount in the lysed endothelial cells ([2]; BLECs exposed to 4000 nM peptide): 3.50% | Percent of the initial amount in the lysed endothelial cells ([2]; BLECs pre-exposed to 500 nM peptide): 0.19%

CC[C@H](C)[C@@H]1NC(=O)[C@@H]2CCCN2C(=O)[C@@H]2CCCN2C(=O)[C@H]([C@@H](C)CC)NC(=O)[C@H](CO)NC(=O)[C@H](CCCCN)NC(=O)[C@H]([C@@H](C)O)NC(=O)[C@@H]2CSSC[C@H](NC1=O)C(=O)N[C@@H](Cc1ccccc1)C(=O)N1CCC[C@H]1C(=O)N[C@@H](CC(=O)O)C(=O)NCC(=O)N[C@@H](CCCNC(=N)N)C(=O)N2 [SFTI-1, sunflower trypsin inhibitor-1]
Total plasma concentration post 120 min time point (below the quantification limit) (in vivo; 10 min infusion 0.5 mg/kg): < 5 ng/mL | Half-life, t½ (in vivo; plasma): 20.3 ± 3.50 min | AUC(0-inf) (in vivo; plasma): 1290 ng·h/mL | Vd (in vivo; plasma): 0.191 ± 0.0344 L/kg | clearance (in vivo; plasma): 1.82 ± 0.48 mL/min/kg | half-life (in vivo; plasma): 20 min | Kp at 4 h [1]: 0.06 | Kp uu [1]: 0.13 | Kp,uu,brain as percent equilibrating across the BBB [1]: 13% | Total brain-to-plasma concentration ratio, Kp,brain [1]: 0.0618 ± 0.0318 | Unbound brain-to-plasma concentration ratio, Kp,uu,brain [1]: 0.129 ± 0.0698 | Total steady-state plasma concentration, Cplasma,ss [1]: 400 nmol/L | Detection in the lysed endothelial cells ([2]; BLECs at end of transport experiment): did not detect
